The source of these data is patent US6177592A, “Compounds” (priority 1997, dated 2001).

Experiment [1] concerns heat shock protein of 70 kDa (HSP70). Description: Induction of heat shock protein of 70 kDa in HL-60. The class given is cell-based, human. More on the design: key: -: no induction was noted; ±: the induction was slight; indicates degree of intensity of induction and the more the numbers of "+", the more the intensity of induction; ++: the more the numbers of "+", the more the intensity of induction; +++: the more the numbers of "+", the more the intensity of induction. Conditions: 5 μM CM.

Another experiment concerns Meth A cells. Description: Meth A subcutaneous tumor growth in BALB/c mice. Format: in vivo, mouse. Conditions: 5 mg/kg/day s.c., five days; after two weeks. The method, then:
GM was diluted with a physiological saline solution to a predetermined concentration and subjected to the following tests.
(1) Meth A cells (2×10^6 cells/mouse) were subcutaneously injected to abdomen of female BALB/c mice (body weight: about 20 g) of eight weeks age. After that, GM (5 mg/kg/day) was subcutaneously injected for consecutive five days to the same site. On the other hand, a physiological saline solution was subcutaneously injected to the control group by the same manner. After two weeks, the cancer tissues generated in abdomen of the mice were excised and their weight were measured.

In experiment [2] the test system is carrageenan-induced pedal edema. The experiment in a line: Carrageenan-induced pedal edema in Lewis rats. The class given is in vivo. Particulars: Rattus norvegicus, 3 h; oral; three hours after carrageenan; read-out: dose with significant inhibition of pedal edema. On the procedure:
Carrageenan-induced pedal edema models which were animal model of chronic articular rheumatism were prepared as follows using male Lewis rats [purchased from Seac-Yoshitomi when five weeks age (body weight: about 130 g) followed by subjecting to a preliminary breeding for one week at our end] and the test drugs were evaluated.
To the rats which were fasted since 18 hours before initiation of the experiment was orally administered with 10 ml/kg of GM which was prepared with distilled water (manufactured by Otsuka Pharmaceutical) to make 10 and 100 mg/ml.
After 0.5 hour from administration of the test drug, 100 μl/rat of 1% suspension of carrageenan (manufactured by Wako) in a physiologically saline solution (manufactured by Otsuka Pharmaceutical) was injected to right paw to induce pedal edema. After three hours from the carrageenan injection, volume of right paw of the rat was measured by a pedal volume measuring device (manufactured by UGO BASILE). Incidentally, the measured value was expressed by calculating the increasing rate from the right paw volume of each rat measured before the carrageenan administration.

For a further experiment, the system named is Jurkat cells. Description: Growth of Jurkat cells (MTT). Format: cell-based, human. Particulars: 24 hours. The method, then: (1) Jurkat cells (ATCC TIB-152) and Molt-3 cells (ATCC CRL-1552) which were human T cell leukemia cell stain were incubated in an RPMI 1640 medium (manufactured by Gibco BRL) containing 10% fetal calf serum (FCS, manufactured by Bio Whittaker) at 37° C. in the presence of 5% CO2 and the cells were then suspended in the above-mentioned medium containing 0, 5, 10 or 20 μM of GM to make the cell numbers 5×10^5 cells/ml followed by incubating for 24 hours. Cell growth was measured by an MTT method [Mosmann, et al.: J. Immunol. Methods, volume 65, pages 55-63 (1983)] wherein degree of cell growth was determined by the absorbance at 560 nm.

A further experiment has as its system p24 antigen. Description: p24 antigen in culture supernatant of CEM-3B cells. The class given is cell-based, HIV-1IIIB. Particulars: one day. The method, then: (2) Concentration of p24 antigen contained in the supernatant liquid in the culture after incubation of the CEM-3B cells mentioned in Example 15-(1) for one day was measured.
The next experiment deals with NIH 3T3. Description: Colony formation of NIH 3T3 cells. The class given is cell-based. Conditions: 5 μM GM, nine days; control 91.7 ± 11.9. The method, then: NIH 3T3 cells were incubated at 37° C. under the condition of 5% CO2 in a Dulbecco-modified Eagle's medium containing 10% of calf serum.
(2) NIH 3T3 cells, the cells strains into which control vector was introduced and the cell strains into which E7 was introduced were made to grow to an extent of 50-70% confluence in a Dulbecco-modified Eagle's medium containing 10% of calf serum using a 100 mm-tissue culture plate and washed with PBS and the cells were peeled off with a 0.25% trypsin-EDTA solution and suspended in 5 ml of Dulbecco-modified Eagle's medium containing 10% of calf serum.
A part of the suspension was taken out and cell density was counted by a Neubauer's hemocytometer. Based upon the resulting data, it was diluted with a Dulbecco-modified Eagle's medium containing 10% of calf serum and planted on a tissue culture plate having a diameter of 60 mm to make 200 cells/plate and incubation was started in 3 ml of the medium. After 24 hours from the initiation of the incubation, GM was added thereto to make its concentration 5 μM. After additional 24 hours, the medium was exchanged with a fresh one and GM was added thereto to make its concentration 5 μM.
After that, the medium was exchanged with a fresh one every two to three days followed by adding GM thereto to make its concentration 5 μM. […]

Another experiment has as its target T1, topoisomerase II (Homo sapiens, UniProt P11388).
T1 construct: purchased TopoGEN
Description: Topoisomerase II inhibition (pBR322 relaxation). Format: biochemical. Also on record: key to Inhibiting Activity: -: a complete change from a supercoiled type to a relaxation type; +: a change in a medium degree; ++: most of supercoiled type remained; +++: there was no decrease in a supercoiled type at all. On the procedure:
(1) One μl of 0.25 μg/μl pBR322 DNA (manufactured by Takara Shuzo) was added to a mixture of 2 μl of topoisomerase II (manufactured by TopoGEN, 2 units/μl), 2 μl of a buffer with a ten-fold diluted concentration [0.5M Tris-HCl (pH 8.0), 1.2M KCl, 0.1M MgCl2, 5 mM adenosine triphosphate and 5 mM dithiothreitol], 2 μl of 0.1% bovine serum albumin (manufactured by Takara Shuzo), 11 μl of distilled water and 2 μl of distilled water (a control) or a sample (50, 100, 200, 500, 1000 or 2500 μM of GM) and made to react at 37° C. After the reaction for 30 minutes, the reaction was stopped by adding 2 μl aqueous solution of 1% sodium dodecylsulfate, 50% glycerol and 0.02% Bromophenol Blue.
The above reaction solution (20 μl) was applied to 1% agarose gel prepared from agarose L03 (manufactured by Takara Shuzo) and TAE buffer [40 mM Tris, 5 mM sodium acetate and 1 mM disodium ethylenediaminetetraacetate (EDTA); adjusted to pH 7.8 with acetic acid] and electrophoresis was conducted in the TAE buffer. After the electrophoresis, the gel was dipped in an aqueous solution of 1 μg/ml ethidium bromide and irradiated with ultraviolet ray to observe the electrophoretic pattern of DNA.

T1 sequence (P11388 whole entry): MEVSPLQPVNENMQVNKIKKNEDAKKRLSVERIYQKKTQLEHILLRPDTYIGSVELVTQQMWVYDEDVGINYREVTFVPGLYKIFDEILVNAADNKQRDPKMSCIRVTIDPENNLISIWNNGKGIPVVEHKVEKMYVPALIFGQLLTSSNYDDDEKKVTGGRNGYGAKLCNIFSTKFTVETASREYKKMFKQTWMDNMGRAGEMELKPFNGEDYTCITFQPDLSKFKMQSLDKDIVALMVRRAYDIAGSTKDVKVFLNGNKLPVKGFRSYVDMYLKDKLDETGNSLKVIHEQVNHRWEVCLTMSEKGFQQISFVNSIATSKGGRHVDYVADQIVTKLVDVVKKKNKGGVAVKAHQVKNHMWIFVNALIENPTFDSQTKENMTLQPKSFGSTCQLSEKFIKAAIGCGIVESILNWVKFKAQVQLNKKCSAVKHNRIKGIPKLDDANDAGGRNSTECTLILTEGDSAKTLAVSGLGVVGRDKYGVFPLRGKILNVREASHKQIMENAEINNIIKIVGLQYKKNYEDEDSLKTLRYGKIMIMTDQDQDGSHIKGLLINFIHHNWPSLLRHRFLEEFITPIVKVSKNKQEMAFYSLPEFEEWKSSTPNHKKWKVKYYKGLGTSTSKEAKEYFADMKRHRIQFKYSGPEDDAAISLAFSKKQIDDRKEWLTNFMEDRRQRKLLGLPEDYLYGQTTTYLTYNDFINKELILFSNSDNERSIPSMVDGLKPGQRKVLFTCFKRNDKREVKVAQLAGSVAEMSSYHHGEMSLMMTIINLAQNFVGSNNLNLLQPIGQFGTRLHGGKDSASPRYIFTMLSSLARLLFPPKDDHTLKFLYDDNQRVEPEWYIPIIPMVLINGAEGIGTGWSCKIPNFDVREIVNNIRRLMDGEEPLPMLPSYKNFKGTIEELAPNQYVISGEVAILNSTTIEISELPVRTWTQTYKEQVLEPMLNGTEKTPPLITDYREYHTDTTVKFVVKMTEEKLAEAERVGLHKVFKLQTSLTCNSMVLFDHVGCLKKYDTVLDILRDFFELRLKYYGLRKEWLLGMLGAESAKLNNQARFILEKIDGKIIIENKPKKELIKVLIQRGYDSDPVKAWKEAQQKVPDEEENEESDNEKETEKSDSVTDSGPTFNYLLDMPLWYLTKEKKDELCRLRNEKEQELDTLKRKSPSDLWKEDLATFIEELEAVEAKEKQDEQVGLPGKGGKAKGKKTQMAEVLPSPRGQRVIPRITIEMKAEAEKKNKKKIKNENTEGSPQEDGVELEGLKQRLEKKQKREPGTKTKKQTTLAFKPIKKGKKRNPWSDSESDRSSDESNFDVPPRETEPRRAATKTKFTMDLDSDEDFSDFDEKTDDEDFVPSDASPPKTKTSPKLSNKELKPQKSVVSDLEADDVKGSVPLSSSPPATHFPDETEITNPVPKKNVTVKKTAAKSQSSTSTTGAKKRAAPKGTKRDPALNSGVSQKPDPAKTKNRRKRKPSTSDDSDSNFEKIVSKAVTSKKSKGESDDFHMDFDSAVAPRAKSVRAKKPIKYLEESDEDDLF

In the case of `N[C@@H](CSC1C=C(O)C(=O)C1)C(=O)O` (stereo partly drawn) [CM], the “Induction of Heat Shock Protein” value in experiment [1] was “-”.

In the case of `N[C@@H](CCC(=O)N[C@@H](CSC1C=C(O)C(=O)C1)C(=O)NCC(=O)O)C(=O)O` (stereo partly drawn) [GM, 2-hydroxy-4-glutathion-S-yl-2-cyclopenten-1-one], the “inhibiting action to the growth of cancer (weight of cancer tissues)” value in the experiment on Meth A cells is on record as “significant inhibiting action to the growth of cancer”. Besides, the minimal effective dose in experiment [2] was at least 100 mg/kg. The “effect in the growth of cells” value in the experiment with Jurkat cells (5 μM or less) was “no significant effect in the growth of cells”. Further, the inhibition at 10 µM in the experiment on Jurkat cells (Homo sapiens, 10 μM, read-out: inhibition of cell growth) was about 50%. Besides, the inhibition at 20 µM in the experiment on Jurkat cells (Homo sapiens, 20 μM, read-out: inhibition of cell growth) was at least 75%. Moreover, the “p24 concentration in supernatant” value in the experiment with p24 antigen is on record as “the p24 concentration decreased depending upon the concentration of the added GM”. In addition, the “Numbers of Colonies (Mean Value ± SD)” value with NIH 3T3 came to 79.0 ± 2.6. Besides, the “concentration at which change of DNA to relaxation type was partially or completely inhibited” value at topoisomerase II is at least 10 µM. The “Inhibiting Activity” value on topoisomerase II (5 μM) was “-”; at topoisomerase II (10 μM), “+”; at topoisomerase II (20 μM) it was “++”; on topoisomerase II (50 μM) it was “++”; on topoisomerase II (100 μM), “+++”; on topoisomerase II (250 μM), “+++”.
